These results are taken from PubChem BioAssay AID1919010 (Molecular Pharmacology Branch, DTP, NCI, 2023).

Several values for one entry are separate records, joined by “and”; a condition that tells them apart may be missing. Equal entries are not always repeated.

This test deals with Hs578T complex spheroid growth, percent test/control. Nature of the test: Anticancer human tumor Hs578T cell line growth inhibition [AhR].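 As to all read-outs here: luminescent viability signal as a proxy for spheroid growth; spheroids exposed to agents for one week after three days of growth.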 The note with it: for viability, T/C: stronger effect = lower value. In short, it runs like this: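 Complex tumor spheroids co-cultured with HUVEC and human MSC stroma; AhR antagonists tested in combination with standard-of-care and investigational agents. Top concentration at or near clinical Cmax (else 10 microM), half-log dilutions; growth expressed as percent test/control.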

Setting [1] is: curve of first compound, second compound 0.1 µM.
Where [2] appears, read: curve of first compound, second compound 0.316 µM.
[3] abbreviates: curve of first compound, second compound 1 µM.
The mark [4] stands for this setting: curve of first compound, second compound 3.16 µM.
The mark [5] stands for this setting: curve of first compound, second compound 10 µM.
[6] abbreviates: second compound 0.1 µM, first compound 0.0316 µM.
Where [7] appears, read: second compound 0.1 µM, first compound 0.1 µM.
The mark [8] stands for this setting: second compound 0.1 µM, first compound 0.316 µM.
Where [9] appears, read: second compound 0.1 µM, first compound 1 µM.
Setting [10] is: second compound 0.1 µM, first compound 3.16 µM.
Setting [11] is: second compound 0.1 µM, first compound 10 µM.
The mark [12] stands for this setting: second compound 0.316 µM, first compound 0.0316 µM.
The mark [13] stands for this setting: second compound 0.316 µM, first compound 0.1 µM.
Where [14] appears, read: second compound 0.316 µM, first compound 0.316 µM.
The mark [15] stands for this setting: second compound 0.316 µM, first compound 1 µM.
The mark [16] stands for this setting: second compound 0.316 µM, first compound 3.16 µM.
[17] abbreviates: second compound 0.316 µM, first compound 10 µM.
The mark [18] stands for this setting: second compound 1 µM, first compound 0.0316 µM.
The mark [19] stands for this setting: second compound 1 µM, first compound 0.1 µM.
Where [20] appears, read: second compound 1 µM, first compound 0.316 µM.
Where [21] appears, read: second compound 1 µM, first compound 1 µM.
Where [22] appears, read: second compound 1 µM, first compound 3.16 µM.
[23] abbreviates: second compound 1 µM, first compound 10 µM.
Setting [24] is: second compound 3.16 µM, first compound 0.0316 µM.
The mark [25] stands for this setting: second compound 3.16 µM, first compound 0.1 µM.
Where [26] appears, read: second compound 3.16 µM, first compound 0.316 µM.
Setting [27] is: second compound 3.16 µM, first compound 1 µM.
[28] abbreviates: second compound 3.16 µM, first compound 3.16 µM.
[29] abbreviates: second compound 3.16 µM, first compound 10 µM.
The mark [30] stands for this setting: second compound 10 µM, first compound 0.0316 µM.
Setting [31] is: second compound 10 µM, first compound 0.1 µM.
[32] abbreviates: second compound 10 µM, first compound 0.316 µM.
[33] abbreviates: second compound 10 µM, first compound 1 µM.
Where [34] appears, read: second compound 10 µM, first compound 3.16 µM.
The mark [35] stands for this setting: second compound 10 µM, first compound 10 µM.

In the case of `CCc1c2c(nc3ccc(O)cc13)-c1cc3c(c(=O)n1C2)COC(=O)[C@]3(O)CC` + Cc1cncc(-c2nc(NCCc3c[nH]c4ccccc34)c3ncn(C(C)C)c3n2)c1, the IC50 is, setting by setting: under setting [1], 136 nM; under setting [2], 197 nM; under setting [3], 115 nM; under setting [4], below 0.949 nM; under setting [5], below 0.949 nM. The viability, T/C reads like this: (second compound 0.1 µM, first compound 0.000949 µM) 74.8%; (second compound 0.1 µM, first compound 0.003 µM) 78.7%; (second compound 0.1 µM, first compound 0.00949 µM) 74.4%; (second compound 0.1 µM, first compound 0.03 µM) 64.6%; (second compound 0.1 µM, first compound 0.0949 µM) 53.9%; (second compound 0.1 µM, first compound 0.3 µM) 43.1%. Besides, the viability, T/C was 83.5% (second compound 0.316 µM, first compound 0.000949 µM); 78.6% (second compound 0.316 µM, first compound 0.003 µM); 80.2% (second compound 0.316 µM, first compound 0.00949 µM); 70.4% (second compound 0.316 µM, first compound 0.03 µM); 61.2% (second compound 0.316 µM, first compound 0.0949 µM); 43.7% (second compound 0.316 µM, first compound 0.3 µM). Moreover, the viability, T/C is 77.7% (second compound 1 µM, first compound 0.000949 µM); 67.1% (second compound 1 µM, first compound 0.003 µM); 68.2% (second compound 1 µM, first compound 0.00949 µM); 59.7% (second compound 1 µM, first compound 0.03 µM); 52.1% (second compound 1 µM, first compound 0.0949 µM); 41.8% (second compound 1 µM, first compound 0.3 µM). Further, the viability, T/C runs as follows: (second compound 3.16 µM, first compound 0.000949 µM) 38.9%; (second compound 3.16 µM, first compound 0.003 µM) 42.9%; (second compound 3.16 µM, first compound 0.00949 µM) 38.7%; (second compound 3.16 µM, first compound 0.03 µM) 29%; (second compound 3.16 µM, first compound 0.0949 µM) 18.2%; (second compound 3.16 µM, first compound 0.3 µM) 13.8%. The viability, T/C is 4.74% (second compound 10 µM, first compound 0.000949 µM); 3.51% (second compound 10 µM, first compound 0.003 µM); 4.95% (second compound 10 µM, first compound 0.00949 µM); 2.72% (second compound 10 µM, first compound 0.03 µM); 1.85% (second compound 10 µM, first compound 0.0949 µM); 1% (second compound 10 µM, first compound 0.3 µM).

Take `NS(=O)(=O)OCC1CC(n2ccc3c(NC4CCc5ccccc54)ncnc32)CC1O` (configuration not stated): the viability, T/C is, setting by setting: (compound 0.0316 µM) 105% (2×) and 111%; (compound 0.1 µM) 91.6% and 81.1% and 96.8%; (compound 0.316 µM) 96.3% and 80.9% and 75.9%; (compound 1 µM) 61.7% and 50.2% and 53.7%; (compound 3.16 µM) 41% and 40.2% and 31.6%; (compound 10 µM) 36.6% and 31.7% and 31.8%. For the setting “curve of compound”, the concentration for half-maximal inhibition (IC50) is 1850 nM and 1520 nM and 1090 nM.

Regarding `Cn1ncnc1C1c2n[nH]c(=O)c3cc(F)cc(c23)NC1c1ccc(F)cc1` (configuration not stated), the viability, T/C is 92.2% and 98.6% and 103% (compound 0.000316 µM); 104% and 105% and 101% (compound 0.001 µM); 113% and 105% and 109% (compound 0.00316 µM); 106% and 105% and 103% (compound 0.01 µM); 97.6% and 104% and 106% (compound 0.0316 µM); 102% and 96.8% and 95.4% (compound 0.1 µM). Under “curve of compound”, the IC50 is above 100 nM.

With `CC(CO)NC(=O)c1cc(-c2ccc(Cl)cc2)nn(-c2cnn(C)c2)c1=O` (configuration not stated), the viability, T/C by setting is: (compound 0.316 µM) 116% [middle of 21 runs]; (compound 1 µM) 109% [middle of 20 runs]. Also, the IC50 (compound alone, run of 08/08/2022) is above 10000 nM.

Turning to `Nc1ccn(C2OC(CO)C(O)C2(F)F)c(=O)n1` (configuration not stated) + Cc1ccccc1N=Nc1ccc(NC(=O)c2ccnn2C)c(C)c1, the IC50 by setting is: under setting [1], 4310 nM; under setting [2], 3740 nM; under setting [3], above 10000 nM; under setting [4], below 31.6 nM; under setting [5], below 31.6 nM. Besides, the viability, T/C is 55.6% under setting [6]; 48.1% under setting [7]; 52.5% under setting [8]; 49.2% under setting [9]; 54% under setting [10]; 47.9% under setting [11]. Moreover, the viability, T/C runs as follows: under setting [12], 54%; under setting [13], 44.9%; under setting [14], 53.9%; under setting [15], 49.8%; under setting [16], 49.9%; under setting [17], 50%. Also, the viability, T/C by setting is: under setting [18], 61%; under setting [19], 52%; under setting [20], 49.1%; under setting [21], 46.9%; under setting [22], 48.1%; under setting [23], 56.8%. Also, the viability, T/C reads like this: under setting [24], 48.7%; under setting [25], 47.3%; under setting [26], 47.4%; under setting [27], 47.9%; under setting [28], 45.9%; under setting [29], 44.6%. Moreover, the viability, T/C reads like this: under setting [30], 45.1%; under setting [31], 46.1%; under setting [32], 35.6%; under setting [33], 36.2%; under setting [34], 37%; under setting [35], 41.4%.

As to `O=C(C=Cc1cccc(S(=O)(=O)Nc2ccccc2)c1)NO` + CC(CO)NC(=O)c1cc(-c2ccc(Cl)cc2)nn(-c2cnn(C)c2)c1=O, the IC50 under setting [1] came to 2590 nM; the IC50 under setting [2] was 2510 nM; the IC50 under setting [3] was determined as 2780 nM; the half-maximal inhibitory concentration (IC50) under setting [4] turned out to be 2420 nM; the IC50 under setting [5] was 2290 nM. Moreover, the viability, T/C reads like this: under setting [6], 112%; under setting [7], 113%; under setting [8], 102%; under setting [9], 82.6%; under setting [10], 43.2%; under setting [11], 2.61%. Moreover, the viability, T/C is, setting by setting: under setting [12], 115%; under setting [13], 116%; under setting [14], 103%; under setting [15], 82.5%; under setting [16], 41.8%; under setting [17], 2%. Further, the viability, T/C is 109% under setting [18]; 117% under setting [19]; 106% under setting [20]; 89.8% under setting [21]; 45.1% under setting [22]; 2.32% under setting [23]. Also, the viability, T/C under setting [24] was 106%; the viability, T/C under setting [25] is 113%; the viability, T/C under setting [26] was 107%; the viability, T/C under setting [27] is 80.8%; the viability, T/C under setting [28] was 41.1%; the viability, T/C under setting [29] was 2.02%. Moreover, the viability, T/C runs as follows: under setting [30], 93.5%; under setting [31], 94.8%; under setting [32], 93.6%; under setting [33], 70.5%; under setting [34], 42.1%; under setting [35], 1.62%.

As a reminder, the IC50 is the concentration at which inhibition is half-maximal. By viability, T/C is commonly meant the result in the treated group divided by that in the control group, in per cent.
